{"source": "patent US20120196766A1", "about": "“Therapeutic Use of Farnesyltransferase Inhibitors and Methods of Monitoring the Efficacy Thereof” (priority 2004, published 2012)", "test_system": "THP-1 cells", "experiment": "Reverse transcriptase and real-time quantitative PCR of LPS-induced transcription in THP-1 cells", "type": "cell-based, Human", "procedure": "THP-1 cells were cultured in RPMI1640 medium, supplemented with 10% FBS/100 units/ml Penicillin/10 μg/ml Streptomycin at 37° C., under 5% CO2. […] For the untreated control group (no LPS, no compound) and LPS alone group, equivalent volumes of DMSO were added to the medium. Cells were cultured at 37° C. and pellets were collected at 0 hr, 1 hr, 3 hr, 6 hr, 12 hr & 24 hr. Cell pellets were stored at −80° C. if RNA isolation was not conducted immediately. For experiments to study cytokine secretion in culture supernatants, THP-1 cells were washed twice with PBS, resuspended at 3.4×10^5/ml and cultured in 96-well plates at 250 μL, per well at 37° C. […] Supernatants were collected at different time points as indicated in the figures and were kept at ≦−20° C. until analysis of cytokine production.\nTotal RNA was isolated using RNeasy mini kit from QIAGEN (Valencia, Calif.) according to the manufacturer's instructions. RNA samples were stored at −80° C.\nTwo to three micrograms of DNase-treated total RNA were reverse transcribed to cDNA using the Transcriptor First Strand cDNA Synthesis Kit (Roche Diagnostics Corporation, Indianapolis, Ind.) according to the instructions.\nReal-time PCR was carried out with the LightCycler FastStart DNA Master^plus SYBR Green I kit (Roche Diagnostics) according to the manufacturer's instructions.\nThe PCR profile was as follows: (i) denaturation at 95° C. for 10 min. (ii) 45 cycles of 0 s at 95° C., 5 s at 54-58° C. (depending on Tm of the primers), 6-16 s (determined by the length of amplicon) at 72° C. (iii) melting curves for 0 s at 95° C., 15 s at 65° C. and 0 s at 95° C. (iv) cooling at 40° C. for 30 s. Transition rates were: 20° C./s for all steps except 0.1° C./s for 95° C. segment 3 of the melting curves.\nFor data analysis, the baseline adjustment was carried out in the “arithmetic” mode, and the fluorescence curve analysis was carried out in the “Second Derivative Maximum” mode of the LightCycler™ software (Version 3.5).\nThe primers used for real-time PCR were as follows (5′ to 3′): […]", "key": {"[1]": {"conditions": "simvastatin 10 μM or tipifarnib 5 μM, 6 and 12 hours"}}}
{"smiles": "Cn1cncc1C(N)(c1ccc(Cl)cc1)c1ccc2c(c1)c(-c1cccc(Cl)c1)cc(=O)n2C", "note": "(single isomer, unassigned; (+)) [tipifarnib, (+)-6-[amino(4-chlorophenyl)(1-methyl-1H-imidazol-5-yl)methyl]-4-(3-chlorophenyl)-1-methyl-2(1H)-quinolinone]", "values": [{"measurement": "Induction of IL-8 by LPS", "setting": "[1]", "value": "no significant effect"}, {"measurement": "STAT1 induction by LPS", "setting": "[1]", "value": "inhibited"}, {"measurement": "Induction of IL-8 by LPS", "setting": "simvastatin 10 μM or tipifarnib 5 μM, 3 hours", "value": "unaffected"}, {"measurement": "peak of LPS-induced IL-6 transcription", "setting": "simvastatin 10 μM or tipifarnib 5 μM, 6 hours", "value": "inhibition"}, {"measurement": "LPS-induced IL-6 transcription", "setting": "simvastatin 10 μM or tipifarnib 5 μM, 12 hours", "value": "inhibition"}, {"measurement": "LPS-induced IL-1β transcription", "setting": "simvastatin 10 μM or tipifarnib 5 μM, after 6 and 12 hours", "value": "significantly downregulated"}, {"measurement": "LPS-induced MCP-1 transcription", "setting": "simvastatin 10 μM or tipifarnib 5 μM, from 6 hours", "value": "inhibited significantly"}, {"measurement": "LPS-induced IL-1β transcription", "setting": "simvastatin 10 μM or tipifarnib 5 μM, up to 3 hours", "value": "unaffected"}, {"measurement": "MyD88 induction by LPS", "setting": "tipifarnib 5 μM, 6 and 12 hours", "value": "almost complete inhibition"}, {"measurement": "MMP-9 induction by LPS", "setting": "tipifarnib 5 μM, 12 hours", "value": "no induction"}]}
